Assay results as given in US8110365B2, “Compositions and methods for detecting and treating renal injury and inflammation” (Rhode Island Hospital, priority 2006, dated 2012).
Entries after “also recorded” stand apart in the source; their conditions may differ.

How the values were obtained:
NF-κB = assay: Gel shift assay of HKC nuclear extract with NF-κB consensus sequence; type: cell-based, human; conditions: HKC cells, 4 h
GSK3b [1] = target: T1, GSK3b (Homo sapiens, UniProt P49841); assay: Inhibitory phosphorylation of GSK3b in HUVEC (immunoblot); type: cell-based; parameters: endogenous in cells; conditions: LiCl 20 mM, HGF 100 ng/ml
T1 sequence (P49841 whole entry): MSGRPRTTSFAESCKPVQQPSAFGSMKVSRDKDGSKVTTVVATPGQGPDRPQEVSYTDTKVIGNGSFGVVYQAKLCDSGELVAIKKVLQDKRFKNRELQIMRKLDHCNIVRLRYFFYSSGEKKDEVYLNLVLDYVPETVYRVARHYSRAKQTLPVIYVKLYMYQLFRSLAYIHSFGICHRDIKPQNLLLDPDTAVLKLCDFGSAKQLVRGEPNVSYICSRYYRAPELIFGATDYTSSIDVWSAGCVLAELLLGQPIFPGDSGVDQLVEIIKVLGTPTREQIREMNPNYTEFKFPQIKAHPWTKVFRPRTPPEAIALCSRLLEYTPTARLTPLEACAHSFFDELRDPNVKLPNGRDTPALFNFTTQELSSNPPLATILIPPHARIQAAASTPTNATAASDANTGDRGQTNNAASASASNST

remnant kidney rats = assay: Rat remnant kidney model (5/6 nephrectomy); type: in vivo; conditions: for inflammation and injury in remnant kidneys: rats, treatment for 2 wk beginning 2 wk after nephrectomy
From the text: We examined the molecular mechanism of HGF's anti-inflammatory actions in a model of CKD. Beginning 2 wk after ⅚^th nephrectomy, rats received exogenous HGF, neutralization of endogenous HGF by daily injection of an anti-HGF antibody, or preimmune IgG for 2 wk. […] There were parallel alterations in endothelial activation and inflammation, marked by de novo E-selectin expression and leukocyte adhesion to renal vascular endothelium. […] Thus, the GSK3b inhibitor HGF has direct anti-inflammatory effects via suppression of NF-KB and endothelial inflammation.

GSK3b [2] = target: T1, GSK3b; assay: Inhibitory phosphorylation of GSK3b in HKC cells (immunoblot); type: cell-based; parameters: endogenous in cells; host or cells: HKC-8
Method: Human proximal TEC (HKC-8) (courtesy of Dr. L. Racusen of John Hopkins University, Baltimore, Md.) were maintained in Dulbecco's modified Eagle's medium (DMEM)/F12 supplemented with 5% fetal bovine serum (FBS). Cells were plated at approximately 70% confluence in the media containing 5% FBS for 24 h and then underwent serum starvation for another 24 h. Human recombinant HGF and human recombinant TNF-α (R&D systems, Minneapolis, Minn.) were added to the culture with fresh serum-free medium at a final concentration of 20 ng/ml and 2 ng/ml respectively, or otherwise as indicated. Cell viability was assessed by Trypan blue exclusion. At different time points, cells and conditioned media were harvested for further investigation.
After different treatments, HKC cells were washed with PBS and lysed with RIPA buffer supplemented with protease inhibitors [1% Nonidet P-40, 0.1% SDS, 100 ug/ml phenylmethysulfonyl fluoride (PMSF), 0.5% sodium deoxycholate, ImM sodium orthovanadate, 2 ug/ml aprotin, 2 ug/ml leupeptin, 5mM EDTA in PBS]. Protein concentration was determined by using a bicinchoninic acid protein assay kit (Sigma). All samples with equal amounts of total protein (50 ug/ml) were fractionated by 7.5˜15% SDS-polyacrylamide gels under reducing condition and analyzed by western immunoblot as described previously (30). The antibodies against p-GSK3b, p-NFkB p65, p-IkBa were purchased from Cell Signaling Technology (Beverly, Mass.) and those for GSK3b, hemagglutin were from Santa Cruz Biotechnology (Santa Cruz, Calif.).

NFkB target genes = assay: Real time RT-PCR of NFkB target genes in TNF-a stimulated HKC cells; type: cell-based, human
Method: Total RNA was extracted from approximately 1×10^6 cultured HKC cells using TRIzol solution (Invitrogen, Carlsbad, Calif.) according to the instructions specified by the manufacturer. RNA was then diluted to 3μg/μl in RNase free distilled water. The first strand cDNA was prepared using 3 μg RNA, Superscript RT reverse transcriptase (Invitrogen) and oligo (dT) primer according to the manufacture's instruction. Quantitative real time PCR was carried out on a Stratagene Mx4000® multiplex quantitative PCR system (Stratagene, La Jolla, Calif.) using primers specific for human MCP-1, RANTES, IkBa, Bcl-2 and GAPDH. All reactions were performed in triplicate with Brilliant® SYBR® Green QPCR Master Mix (Stratagene). Fluorescence values of SYBR Green I dye, representing the amount of product amplified at that point in the reaction, were recorded in real time at both the annealing step and the extension step of each cycle. The Ct value, defined as the point at which the fluorescence signal was statistically significant above background, was calculated for each amplicon in each experimental sample using Stratagene Mx4000 software. This value was then used to determine the relative amount of amplification in each sample by interpolating from the standard curve. Transcript level of each specific gene was normalized to GAPDH amplification.

NF-kB and IkB = NF-kB and IkB phosphorylation and IkB degradation in endothelial cells; type: cell-based
Method: In certain embodiments, NF-kB p65 phosphorylation is assessed as follows. Cell lysates with equal amounts of total protein are immunoblotted for phosphorylated NF-kB p65 or total p65. Anti-phosphorylated NF-kB p65 antibody is commercially available, e.g., from Cell Signaling, MA. Densitometric results of phosphorylated NF-kB p65 and total p65 bands as well as the ratio of pp65/p65 are compared between different transfections at different time points.
In certain embodiments, IkB phosphorylation and degradation is evaluated as follows. Cell lysates with equal amounts of total protein are immunoblotted for phosphorylated IkBa (anti-phosphorylated IkBa antibody is available from Cell Signaling. MA) or total IkBa. Densitometric results of phosphorylated IkBa and total IkBa bands are compared across the different treatments and time points.

NFkB p65 = assay: ChIP of NFkB p65 at MCP-1 and RANTES promoters in HKC cells; type: cell-based, human
From the text: The in situ interaction between NFκB and its target genes in HKC cells was examined by ChIP assay (35) using a commercially available kit (Upstate Biotechnology, Charlottesville, Va.) according to manufacturer's instructions. Briefly, HKC cells were fixed and crosslinked with 4% formaldehyde. After collection of cell pellets and sonication, aliquots of the samples were set aside as input fraction and the rest subjected to immunoprecipitation using an anti-NFκB p65 antibody or preimmune IgG and Protein A agarose used to pull down the immune complexes. After elution, precipitated chromatin as well as the input fraction was heated at 65° C. to reverse crosslinks and the DNA extracted with Qiagen PCR purification kit (Qiagen, Valencia, Calif.). DNA sequences spanning the κB responsive elements in the promoter region were amplified by PCR using specific primers (MCP-1, forward 5′-[…]-3′ (SEQ ID NO: 1), reverse 5′-[…]-3′(SEQ ID NO: 2), Genbank accession number Y18933; RANTES, forward 5′-[…]-3′ (SEQ ID NO: 3), reverse 5′-[…]-3′ (SEQ ID NO: 4), Genbank accession number S64885) for a number of cycles in the exponential phase as estimated in pilot experiments. DNA samples extracted from input fractions were amplified in parallel for normalization. PCR products resolved in ˜1.5 to 2% agarose gels were photographed under ultraviolet light.

[3] = test system: phosphatidylinositol 3-kinase (PI3K)-Akt; assay: PI3K-Akt activation in HUVEC; type: cell-based, human
PI3K-Akt = PI3K-Akt activation in HKC / TEC; type: cell-based, human

**Q.** For “HGF: Human recombinant HGF (R&D systems); induces inhibitory phosphorylation of GSK3b”, which “TNF-α induced binding of nuclear extract to NF-κB consensus oligonucleotides” value (NF-κB) is on record?
**A.** Its value is “markedly blunted by HGF; also recorded: attenuated by HGF”.

**Q.** What about the “inhibitory phosphorylation of GSK3b at serine 9” value (GSK3b [1]) of the same substance?
**A.** Its value is “inhibited its downstream transducer, GSK-3b, by phosphorylation at serine-9; also recorded: inactivates GSK3b by inhibitory phosphorylation at ser-9; also recorded: induces inhibitory phosphorylation of GSK3b”.

**Q.** What about the “sequestration of circulating macrophages in the remnant kidney” value (remnant kidney rats; exogenous HGF) of the same substance?
**A.** Its value is “markedly diminished sequestration of circulating macrophages in the remnant kidney”.

**Q.** And the “inflammation and injury in remnant kidneys” value (remnant kidney rats)?
**A.** The value was “ameliorated; also recorded: reduces inflammatory infiltration, tubular and glomerular injury”.

**Q.** What about the “inflammation and injury in remnant kidneys” value (remnant kidney rats; listed as hepatocyte growth factor) of the same substance?
**A.** Its value is “profoundly ameliorating gross renal inflammation”.

**Q.** And the “expression of metalloproteinase-9 (MMP-9)” value (remnant kidney rats; remnant kidney rats)?
**A.** Its value is “increasing expression of metalloproteinase-9 (MMP-9)”.

**Q.** And the “expression of transforming growth factor-beta (TGF-β)” value (remnant kidney rats; remnant kidney rats)?
**A.** The value was “did not reduce expression of transforming growth factor-beta (TGF-β)”.

**Q.** What about the “levels of PAI-1 and TIMP-1” value (remnant kidney rats; remnant kidney rats) of the same substance?
**A.** Its value is “decreasing levels of plasminogen activator inhibitor-1 (PAI-1) and tissue inhibitor of metalloproteinase-1 (TIMP-1)”.

**Q.** And the “renal / tubular expression of proinflammatory molecules (MCP-1, RANTES, E-selectin)” value (remnant kidney rats; remnant kidney rats)?
**A.** Its value is “decreased staining to normal”.

**Q.** And the interstitial injury (remnant kidney rats; remnant kidney rats with established renal injury)?
**A.** Its interstitial injury is “reduced interstitial injury”.

**Q.** And the “decrease of interstitial macrophages” value (remnant kidney rats; remnant kidney rats, continuous infusion for two weeks)?
**A.** The value was “more than 50%”.

**Q.** What about the “renal / tubular expression of proinflammatory molecules (MCP-1, RANTES, E-selectin)” value (remnant kidney rats; remnant kidney rats, listed as hepatocyte growth factor) of the same substance?
**A.** Its value is “reduced renal expression of proinflammatory molecules such as RANTES, and E-selectin”.

**Q.** What about the “inhibitory phosphorylation of GSK3b (S9)” value (GSK3b [2]) of the same substance?
**A.** Its value is “inhibited GSK3, by phosphorylation at Ser-9; also recorded: induce GSK3b phosphorylation at Ser9; also recorded: induces inhibitory phosphorylation of GSK3b at S9”.

**Q.** And the “suppressive effect of HGF on TNF-a induced MCP-1 and RANTES mRNA expression” value (NFkB target genes; HKC cells expressing S9A)?
**A.** The value was “obliterated in cells expressing S9A; also recorded: obliterated in cells expressing the mutant uninhibitable GSK3b”.

**Q.** What about the “suppressive effect of HGF on TNF-a induced MCP-1 and RANTES mRNA expression” value (NFkB target genes; HKC cells transfected with EV or WT) of the same substance?
**A.** The value was “present in cells transfected with EV or WT”.

**Q.** And the “TNF-a induced mRNA expression of IkBa and Bcl-2” value (NFkB target genes; HKC cells, 12 h)?
**A.** Its value is “not remarkably affected”.

**Q.** What about the “TNF-a induced mRNA expression of MCP-1 and RANTES” value (NFkB target genes; HKC cells, 12 h) of the same substance?
**A.** The value was “strikingly attenuated TNF-a induced mRNA expression of MCP-1 and RANTES; also recorded: selectively regulates TNF-a induced transcription of specific NFkB target genes”.

**Q.** What about the “NF-kB and IkB phosphorylation and IkB degradation” value (NF-kB and IkB) of the same substance?
**A.** The value was “inhibition of NF-kB and IkB phosphorylation and IkB degradation”.

**Q.** What about the “TNF-a induced recruitment of NFkB p65 to MCP-1 and RANTES promoters” value (NFkB p65) of the same substance?
**A.** Its value is “substantially attenuated by concomitant HGF treatment; also recorded: markedly attenuated”.

**Q.** What about the PI3K-Akt activation [3] of the same substance?
**A.** Its PI3K-Akt activation is “activated phosphatidylinositol 3-kinase (PI3K)-Akt”.

**Q.** And the PI3K-Akt activation (PI3K-Akt)?
**A.** The PI3K-Akt activation was “elicited PI3K-Akt activation; also recorded: activates PI3K-Akt in TEC”.
